These results are taken from patent publication US20050182105A1 (priority 2004, published 2005).

The test system of assay [1] is wild type AR (MDA 453 cells). Conditions: read-out: Kd for [3H]-DHT, Scatchard analysis, 4 h at 37° C. As for the experimental part:
For the whole-cell binding assay, human LNCaP cells (T877A mutant AR) or MDA 453 (wild type AR) in 96-well microtiter plates containing RPMI 1640 or DMEM supplemented with 10% charcoal stripped CA-FBS (Cocaleco Biologicals) respectively, were incubated at 37° C. to remove any endogenous ligand that might be complexed with the receptor in the cells.
For the saturation analysis, the difference between the total binding and the non-specific binding, was defined as specific binding. […] See e.g. D. Rodbard, Mathematics and statistics of ligand assays: an illustrated guide: In: J. Langon and J. J. Clapp, eds., Ligand Assay, Masson Publishing U.S.A., Inc., New York, pp. 45-99, (1981), the disclosure of which is herein incorporated by reference.
Two replicates were used for each sample. […] After correcting for non-specific binding, IC50 values were determined. […] C2C12 Mouse Myoblast Transactivation Assay

Another assay concerns the target glucocorticoid receptor (Homo sapiens, UniProt P04150). The assay can be described thus: cell-based. Conditions: A549, read-out: % inhibition of the reporter system as compared to the buffer control with 10 ng/mL PMA alone. As for the experimental part: The AP-1 assay is a cell-based luciferase reporter assay. A549 cells, which contain endogenous glucocorticoid receptor, were stably transfected with an AP-1 DNA binding site attached to the luciferase gene. Cells are then grown in RPMI+10% fetal calf serum (charcoal-treated)+Penicillin/Streptomycin with 0.5 mg/mL geneticin. Cells are plated the day before the assay at approximately 40000 cells/well. On assay day, the media is removed by aspiration and 20 μL assay buffer (RPMI without phenol red+10% FCS (charcoal-treated)+Pen/Strep) is added to each well. At this point either 20 μL assay buffer (control experiments), the compounds of the present invention (“test compounds”) (dissolved in DMSO and added at varying concentrations) or dexamethasome (100 nM in DMSO, positive control) are added to each well. The plates are then pre-incubated for 15 min at 37° C., followed by stimulation of the cells with 10 ng/mL PMA. The plates are then incubated for 7 h at 37° C. after which 40 μL luciferase substrate reagent is added to each well. Activity is measured by analysis in a luminometer as compared to control experiments treated with buffer or dexamethasome.

The target in a further assay is T1, AR (Rattus norvegicus, UniProt P15207).
T1 sequence (P15207 1-902): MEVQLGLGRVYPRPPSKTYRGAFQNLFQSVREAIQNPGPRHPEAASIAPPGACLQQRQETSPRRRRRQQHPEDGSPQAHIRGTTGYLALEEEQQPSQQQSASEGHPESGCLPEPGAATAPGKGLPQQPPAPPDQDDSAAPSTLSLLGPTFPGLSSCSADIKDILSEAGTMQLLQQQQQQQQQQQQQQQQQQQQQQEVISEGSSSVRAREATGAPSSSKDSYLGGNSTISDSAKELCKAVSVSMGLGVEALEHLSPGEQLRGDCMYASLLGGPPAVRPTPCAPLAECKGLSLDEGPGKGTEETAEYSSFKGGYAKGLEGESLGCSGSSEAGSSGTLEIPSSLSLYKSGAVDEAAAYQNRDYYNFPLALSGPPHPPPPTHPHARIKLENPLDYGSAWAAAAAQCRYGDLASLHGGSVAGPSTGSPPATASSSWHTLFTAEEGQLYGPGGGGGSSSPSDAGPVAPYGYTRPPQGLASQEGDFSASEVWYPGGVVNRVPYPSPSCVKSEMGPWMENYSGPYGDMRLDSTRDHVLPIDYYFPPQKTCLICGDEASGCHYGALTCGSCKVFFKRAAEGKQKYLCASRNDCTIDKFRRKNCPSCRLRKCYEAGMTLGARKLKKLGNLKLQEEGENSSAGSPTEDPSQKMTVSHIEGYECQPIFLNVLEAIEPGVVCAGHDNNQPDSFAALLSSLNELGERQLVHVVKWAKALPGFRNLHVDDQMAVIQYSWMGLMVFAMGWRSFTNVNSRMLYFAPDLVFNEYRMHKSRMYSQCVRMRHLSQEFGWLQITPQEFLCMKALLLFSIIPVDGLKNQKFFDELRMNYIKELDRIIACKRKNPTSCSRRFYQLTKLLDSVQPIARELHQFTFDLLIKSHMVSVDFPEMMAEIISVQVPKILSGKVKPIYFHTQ
The text has this:
Biol. Med., 83, 175 (1953); B. L. Beyler et al, “Methods for evaluating anabolic and catabolic agents in laboratory animals”, J. Amer. Med. Women's Ass., 23, 708 (1968); H. Fukuda et al., “Investigations of the levator ani muscle as an anabolic steroid assay”, Nago Dai. Yak. Ken. Nem. 14, 84 (1966) the disclosures of which are herein incorporated by reference.
The basis of this assay lies in the well-defined action of androgenic agents on the maintenance and growth of muscle tissues and sexual accessory organs in animals and man. […] J. Anat. […] Ital. Biol. Sper. […] II. […] Ital. Biol. Sper. 42, 1600 (1966); A. Boris et al., Steroids 15, 61 (1970). As described above, the effects of androgens on maintenance of male sexual accessory organs, such as the prostate and seminal vesicles, is well described. Castration results in rapid involution and atrophy of the prostate and seminal vesicles. This effect can be reversed by exogenous addition of androgens. Since both the levator ani muscle and the male sex organs are the tissues most responsive to the effects of androgenic agents, this model is used to determine the androgen dependent reversal of atrophy in the levator ani muscle and the sex accessory organs in immature castrated rats. Sexually mature rats (200-250 g, 6-8 weeks-old, Sprague-Dawley, Harlan) were acquired castrated from the vendor […]. […]

glucocorticoid receptor, sequence (P04150 whole entry): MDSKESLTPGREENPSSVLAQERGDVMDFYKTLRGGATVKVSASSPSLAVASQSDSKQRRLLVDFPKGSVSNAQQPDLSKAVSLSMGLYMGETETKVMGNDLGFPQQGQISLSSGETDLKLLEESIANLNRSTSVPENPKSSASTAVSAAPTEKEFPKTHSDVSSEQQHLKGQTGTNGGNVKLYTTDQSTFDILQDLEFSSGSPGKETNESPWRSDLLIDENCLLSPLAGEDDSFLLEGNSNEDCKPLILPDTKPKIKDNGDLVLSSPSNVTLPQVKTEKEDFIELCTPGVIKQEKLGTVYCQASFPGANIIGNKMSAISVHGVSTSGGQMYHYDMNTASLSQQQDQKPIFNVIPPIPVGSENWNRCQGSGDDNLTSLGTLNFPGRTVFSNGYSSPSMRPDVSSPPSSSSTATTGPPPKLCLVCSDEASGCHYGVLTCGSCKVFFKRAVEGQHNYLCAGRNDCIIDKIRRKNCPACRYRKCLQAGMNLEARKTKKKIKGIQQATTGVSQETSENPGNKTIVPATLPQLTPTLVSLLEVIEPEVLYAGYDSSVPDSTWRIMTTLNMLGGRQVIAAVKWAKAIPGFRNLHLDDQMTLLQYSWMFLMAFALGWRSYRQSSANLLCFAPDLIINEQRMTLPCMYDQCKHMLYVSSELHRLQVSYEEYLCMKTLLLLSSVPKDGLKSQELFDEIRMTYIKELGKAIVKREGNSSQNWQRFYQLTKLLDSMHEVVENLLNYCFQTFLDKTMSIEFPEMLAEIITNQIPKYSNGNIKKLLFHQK

“tritiated dihydrotestosterone [[^3H]-DHT]”: the Kd in assay [1] worked out at 0.7 nM.

For `C[C@@H]1C[C@H]2[C@@H]3CCC4=CC(=O)C=C[C@]4(C)[C@@]3(F)[C@@H](O)C[C@]2(C)[C@@]1(O)C(=O)CO` [dexamethasone], the inhibition at 10 µM at glucocorticoid receptor is 65%.

As to `CCC(=O)O[C@H]1CC[C@H]2[C@@H]3CCC4=CC(=O)CC[C@]4(C)[C@H]3CC[C@]12C` [TP, testosterone propionate], at AR (castrated rats, organ weight), the “EC50 (increase in organ weight)” value is on record as ~0.03 mg. Also, at AR (higher potency than free T), the “potency relative to free T” value is reported as 10-30 fold.
